Counter-ions that a name gives are not always drawn.
What was measured:
Type in all cases: in vivo, Male Charles River mice (Swiss Strain)
[1] = test system: mice (p-phenylquinone-induced abdominal writhing); assay: P-phenylquinone-induced abdominal writhing test in mice; details: Mus musculus, sc, 20 min; subcutaneous; 20 min pretreatment; data referred to the free base; read-out: ANALGESIA MOUSE WRITHING ED50
Experimental: A) P-phenylquinone-induced abdominal writhing rest in mice
The methodology employed is based on that described by Sigmund et al, Proc. Soc. Exptl. Biol. 95, 729/1957, modified by Milne and Twomey, Agents and Actions, 10, 31/1980.
Male Charles River mice (Swiss Strain), 25-36 g body weight, were used. Animals were allowed food and water ad libitum and were randomized into groups of 10 prior to experimentation. Test compounds were dissolved in either distilled water or distilled water plus 0.1 M AMS, and administered by the subcutaneous route in a final volume of 10 ml/Kg. Control animals received 10 ml/Kg of the appropriate vehicle alone. Following a pretreatment period of 20 min., mice were injected intraperitoneally with p-phenylquinone, 2 mg/Kg at 37° C. in a final volume of […]. […] During this period the number of abdominal writhing responses per animal were recorded where writhing consists of an intermittent contraction of the abdomen associated with hind leg extension.
The degree of antinociceptive protection afforded by the test co mound was determined as the mean number of writhing responses observed in the treated group (T) expressed as a percentage of the mean number of writhing response in the control group (C) according to the following formula:
[1-(T/C]×100%=% graded protection

mice (tail-flick) [2] = assay: Tail-flick test in mice; details: 30 min pretreatment, data referred to the free base; for ED50: Mus musculus, sc, 0.5 h, subcutaneous, read-out: ANALGESIA MOUSE TAIL-FLICK ED50; for ANALGESIA MOUSE TAIL-FLICK, % at 10 mg: 10 mg (mg/kg sc)
Experimental: (§1) B) Tail-flick test in mice
(§2) The methodology employed is based on that described by D'Amour and Smith, J. Pharmacol. Exp. Ther. 72, 74/1941.
(§3) Males Charles River mice (Swiss Strain), 22-34 g body weight were used. Animals were allowed food and water ad libitum and were randomized into groups of 10 prior to experimentation.
Test compounds were dissolved in either distilled water or distilled water plug 0. 1M AMS and administered by the subcutaneous route in a final volume of 10 ml/Kg. Control animals received 10 ml/kg of the appropriate vehicle alone. Following a pretreatment period of 30 min., the mice were again placed under the heat source and the reaction tine re-determined.
(§4) Percentage quantal protection was determined as the number of mice in which the reaction time was doubled compared to pretreatment values, expressed as a percentage of the total number of mice in the group.

mice (tail-flick) [3] = assay: Duration of action, mouse tail-flick graded, % activity at MTFQ ED50; details: sc, data referred to the free base
Experimental: as §1, §2, §3
Test compounds were dissolved in either distilled water or distilled water plug 0. 1M AMS and administered by the subcutaneous route in a final volume of 10 ml/Kg. Control animals received 10 ml/kg of the appropriate vehicle alone. […]
as §4

Row | Structure (SMILES) | ED50 [1] [mg/kg] | ED50 (mice (tail-flick) [2]) [mg/kg] | DURATION OF ACTION M. TAIL-FLICK GRADED % ACTIVITY AT MTFQ ED50, 30' (mice (tail-flick) [3]) [%] | DURATION OF ACTION M. TAIL-FLICK GRADED % ACTIVITY AT MTFQ ED50, 90' (mice (tail-flick) [3]) [%] | ANALGESIA MOUSE TAIL-FLICK, % at 10 mg (mice (tail-flick) [2]) [%]
1 | CC1(C)CCCN(C(=O)Cc2ccc(C(F)(F)F)cc2)C1CN1CCC(O)C1 (stereo not drawn) [Example 5, 1-(4-trifluoromethylphenyl)acetyl-2-(3-hydroxypyrrolidin-1-yl) methyl-3,3-dimethyl piperidine hydrochloride] | 0.089 | 0.225 | 78 | 82 | –
2 | CC1(C)CCCN(C(=O)Cc2ccc(Cl)c(Cl)c2)C1CN1CCC(O)C1 (stereo not drawn) [Example 6, 1-(3,4-dichlorophenyl)acetyl-2-(3-hydroxypyrrolidin-1-yl)methyl-3,3-dimethyl piperidine hydrochloride] | 0.081 | 0.233 | 87 | 100 | –
3 | CC1(C)CCN(C(=O)Cc2ccc(Cl)c(Cl)c2)C(CN2CCC(O)C2)C1 (stereo not drawn) [Example 7, 1-(3,4-dichlorophenyl)acetyl-2-(3-hydroxypyrrolidin-1-yl)methyl-4,4-dimethyl piperidine hydrochloride hemihydrate] | 0.037 | 0.25 | 84 | 74 | –
4 | C[C@]1(O)CCN(C[C@H]2CCCCN2C(=O)Cc2ccc(Cl)c(Cl)c2)C1.Cl [Example 9, (R,S)-1-(3,4-dichlorophenyl)acetyl-2-(3-hydroxy-3-methylpyrrolidin-1-yl) methyl piperidine hydrochloride] | – | – | – | – | 40
5 | CC1(C)CN(C(=O)Cc2ccc(Cl)c(Cl)c2)C(CN2CCC(O)C2)c2ccccc21 (stereo not drawn) [Example 14, 1-(3-hydroxypyrrolidin-1-yl)methyl-2-(3,4-dichlorophenyl)acetyl 4,4-dimethyl-1,2,3,4-tetrahydroisoquinoline hydrochloride] | 0.087 | 0.898 | 93 | 85 | –
6 | O=C1CCCc2cc(CC(=O)N3CCCCC3CN3CCC(O)C3)ccc21 (stereo not drawn) [Example 17, 1-[1-oxo-3,4-dihydro-(2H)-napht-6-yl]acetyl-2-(3-hydroxy-pyrrolidin-1-yl)methyl piperidine] | 1.78 | 3.24 | 78 | 80 | –
7 | O=C(Cc1ccc(Cl)c(Cl)c1)N1CCCCC1CN1CCC(F)C1 (stereo not drawn) [Example 18, 1-(3,4-dichlorophenyl)acetyl-2-(3-fluoropyrrolidin-1-yl)methyl piperidine hydrochloride] | 0.002 | 0.021 | 80 | 34 | –
8 | COC1CCN(CC2CCCCN2C(=O)Cc2ccc(Cl)c(Cl)c2)C1 (stereo not drawn) [Example 19, 1-(3,4-dichlorophenyl)acetyl-2-(3-methoxypyrrolidin-1-yl)methyl piperidine] | – | – | – | – | 80
9 | COC1CCN(CC2CCCCN2C(=O)Cc2ccc(C(F)(F)F)cc2)C1 (stereo not drawn) [Example 20, 1-(4-trifluoromethylphenyl)acetyl-2-(3-methoxypyrrolidin-1-yl) methyl piperidine] | – | – | – | – | 80
10 | O=C1CCCc2cc(CC(=O)N3CCCCC3CN3CCC(F)C3)ccc21 (stereo not drawn) [Example 22, 1-[1-oxo-3,4-dihydro-(2H)-napht-6-yl]acetyl-2-(3-fluoropyrrolidin-1-yl)methyl piperidine hydrochloride] | 0.005 | 0.065 | 75 | 40 | –
11 | CC1(C)CCCN(C(=O)Cc2ccc(C(F)(F)F)cc2)C1CN1CCC(F)C1 (stereo not drawn) [Example 23, 1-(4-trifluoromethylphenyl)acetyl-2-(3-fluoropyrrolidin-1-yl) methyl-3,3-dimethylpiperidine hydrochloride] | 0.003 | 0.005 | 90 | 86 | –
12 | CC1(C)CCN(C(=O)Cc2ccc3c(c2)CCCC3=O)C(CN2CCC(F)C2)C1 (stereo not drawn) [Example 25, 1-[1-oxo-3,4-dihydro-(2H)-napht-6-yl]acetyl-2-(3-fluoropyrrolidin-1-yl)methyl-4,4-dimethyl piperidine hydrochloride] | 0.005 | 0.47 | 74 | 56 | –

Source: patent US5322848A, “N-acyl-substituted azacyclic compounds, processes for their preparation, and their use as pharmaceuticals” (Dr. Lo Zembeletti S.p.A., priority 1989, dated 1994)
